The text below walks through data of patent publication US8053439B2, “Benzophenone derivatives useful for inhibiting formation of microtubule” (Chong Kun Dang Pharmaceutical Corp., priority 2006, dated 2011).

The test deals with HL60 cells. Kind of test: Inhibition effect of HL60 cell line growth (MTT, 3 days). The note with it: Homo sapiens, HL-60, 72 h, read-out: HL60 Growth Inhibition. It is filed as cell-based. The procedure: 1. Inhibition Effect of HL60 Cell Line Growth
A 10% FBS-contained RPMI1640 badge was used for culturing HL60 cells. The test substance was prepared by dissolving in DMSO to a concentration of 10 mg/ml, and continuously diluting with PBS to a final concentration of 100 μg/ml to 0.03 μg/ml. In a 96-well microplate, 180 μl of the badge containing 6.0×10^4 cells/ml of cells and 20 μl of continuously diluted test substance were added. The mixture was cultured at 37° C. with 5% CO2 atmosphere for 3 days. After completion of the cultivation, 50 μl of a solution of 1.25 mg/ml MTT (3-(4,5-dimethylthiazol-2-yl)-2,5-diphenyltetrazolium bromide) dissolved in PBS was added to all wells, and the resulting mixture was reacted at 37° C. for 3 hours. Thus formed formazan crystals were dissolved in 150 μl of DMSO, and an absorbance was measured at 570 nm.

Where [1] appears, read: HL60 cells, 3 days culture, MTT, absorbance 570 nm.

The structures appear in SMILES notation. pIC50: −log10 of the molar value. Where two headings read alike, the source gives them in different places.

With `COc1cc(C(=O)c2cc(-c3nccs3)cnc2-n2cncn2)cc(OC)c1OC` [Compound 410, (5-(thiazol-2-yl)-2-(1H-1,2,4-triazol-1-yl)pyridin-3-yl)(3,4,5-trimethoxyphenyl)methanone], under setting [1], the pIC50 is 7.00.

With `COc1cc(C(=O)c2cc(-c3csc(C)n3)ccc2N)cc(OC)c1OC` [Compound 298, (2-amino-5-(2-methylthiazol-4-yl)phenyl)(3,4,5-trimethoxyphenyl)methanone], the pIC50 under setting [1] was 6.80.

Regarding `COc1cc(C(=O)c2ccc(-c3cccc(S(N)(=O)=O)c3)cc2-n2cncn2)cc(OC)c1OC` [Compound 550], the pIC50 under setting [1] is 7.70.

Turning to `COc1cc(C(=O)c2cc(-c3ccco3)ccc2F)cc(OC)c1OC` [Compound 327, (2-fluoro-5-(furan-2-yl)phenyl)(3,4,5-trimethoxyphenyl)methanone], under setting [1], the pIC50 was 7.05.

Regarding `COc1cc(C(=O)c2ccc(-c3cccc(NS(C)(=O)=O)c3)cc2-n2cncn2)cc(OC)c1OC` [Compound 476, N-(3′-[1,2,4]triazol-1-yl-4′-(3,4,5-trimethoxybenzoyl)biphenyl-3-yl)methanesulfonamide], the pIC50 under setting [1] was 7.60.

As for `COc1ccc(-c2ccn[nH]2)cc1C(=O)c1cc(OC)c(OC)c(OC)c1` [Compound 598, (2-methoxy-5-(1H-pyrazol-5-yl)phenyl)(3,4,5-trimethoxyphenyl)methanone], the pIC50 under setting [1] was 6.41.

As for `COc1ccc(-c2ncco2)cc1C(=O)c1cc(OC)c(OC)c(OC)c1` [Compound 590, (2-methoxy-5-(oxazol-2-yl)phenyl)(3,4,5-trimethoxyphenyl)methanone], the pIC50 is 8.00.

Take `COCOc1c(C)cc(C(=O)c2cc(-c3ccco3)ccc2OC)cc1C` [Compound 265, (5-(furan-2-yl)-2-methoxyphenyl)(4-(methoxymethoxy)-3,5-dimethylphenyl)methanone]: the pIC50 under setting [1] is 6.41.

In the case of `COc1cc(C(=O)c2cc(-c3cccs3)ccc2-n2cncn2)cc(OC)c1OC` [Compound 391, (5-(thiophen-2-yl)-2-(1H-1,2,4,-triazol-1-yl)phenyl)(3,4,5-trimethoxyphenyl)methanone], under setting [1], the pIC50 is 6.92.

With `COc1cc(C(=O)c2ccc(-n3cncn3)cc2N)cc(OC)c1OC` [Compound 272, (2-amino-4-(1H-1,2,4-triazol-1-yl)phenyl)(3,4,5-trimethoxyphenyl)methanone], the pIC50 under setting [1] is 5.87.

With `COc1ccc(-c2ccco2)cc1C(=O)c1cc(C)c(OC)c(C)c1` [Compound 264, (5-(furan-2-yl)-2-methoxyphenyl)(4-methoxy-3,5-dimethylphenyl)methanone], under setting [1], the pIC50 was 6.32.

Turning to `COc1cc(C(=O)c2cc(-c3ccco3)ccc2NC(C)=O)cc(OC)c1OC` [Compound 231, N-(4-(furan-2-yl)-2-(3,4,5-trimethoxybenzoyl)phenyl)acetamide], the pIC50 under setting [1] is 6.92.

`COc1cc(C(=S)c2cc(-c3ccco3)ccc2-n2cncn2)cc(OC)c1OC` [Compound 399, (5-(furan-2-yl)-2-(1H-1,2,4-triazol-1-yl)phenyl)(3,4,5-trimethoxyphenyl)methanethione]: the pIC50 under setting [1] is 6.96.

`COc1cc(C(=O)c2cc(-c3ccco3)ccc2NC(=O)CN)cc(OC)c1OC` [Compound 237, 2-amino-N-(4-(furan-2-yl)-2-(3,4,5-trimethoxybenzoyl)phenyl)acetamide]: under setting [1], the pIC50 is 6.57.

On to `COc1cc(C(=O)c2cc(-c3nccs3)ccc2NCCCO)cc(OC)c1OC` [Compound 348, (2-(3-hydroxypropylamino)-5-(thiazol-2-yl)phenyl)(3,4,5-trimethoxyphenyl)methanone], for which the pIC50 under setting [1] was 7.00.

Turning to `COc1cc(C(=O)c2cc(-c3ccsc3)ccc2NC(C)=O)cc(OC)c1OC` [Compound 300, N-(4-(thiophen-3-yl)-2-(3,4,5-trimethoxybenzoyl)phenyl)acetamide], the pIC50 under setting [1] was 6.77.

With `COc1ccc(-c2cccs2)cc1C(=O)c1cc(OC)c(OC)c(OC)c1` [Compound 594, (2-methoxy-5-(thiophen-2-yl)phenyl)(3,4,5-trimethoxyphenyl)methanone], the pIC50 under setting [1] is 6.92.

In the case of `COc1cc(C(=O)c2ccc(-c3ccsc3)cc2-n2cncn2)cc(OC)c1OC` [Compound 462, (4-(thiophen-3-yl)-2-(1H-1,2,4,-triazol-1-yl)phenyl)(3,4,5-trimethoxyphenyl)methanone], the pIC50 under setting [1] was 7.48.

For the molecule `COc1cc(C(=O)c2ccc(-c3ccc[nH]3)cc2-n2cncn2)cc(OC)c1OC` [Compound 599, (4-(1H-pyrrol-2-yl)-2-(1H-1,2,4-triazol-1-yl)phenyl)(3,4,5-trimethoxyphenyl)methanone], the pIC50 under setting [1] is 6.85.

Regarding `COc1cc(C(=O)c2ccc(-c3ccccc3O)cc2F)cc(OC)c1OC` [Compound 457, (2′-hydroxy-3-(fluoro)biphenyl-4-yl)(3,4,5-trimethoxyphenyl)methanone], under setting [1], the pIC50 was 4.94.

Take `COc1cc(C(=O)c2cc(-c3ccccn3)ccc2NS(C)(=O)=O)cc(OC)c1OC` [Compound 335, N-(4-(pyridin-2-yl)-2-(3,4,5-trimethoxybenzoyl)phenyl)methanesulfonamide]: the pIC50 under setting [1] was 6.66.

Take `COc1cc(C(=O)c2ccc(-c3cscn3)cc2-n2cncn2)cc(OC)c1OC` [Compound 562, (4-(thiazol-4-yl)-2-(1H-1,2,4-triazol-1-yl)phenyl)(3,4,5-trimethoxyphenyl)methanone]: the pIC50 is 7.10.

For the molecule `COc1cc(C(=O)c2cccc(-c3ncco3)c2)cc(OC)c1OC` [Compound 587, (3-(oxazol-2-yl)phenyl)(3,4,5-trimethoxyphenyl)methanone], under setting [1], the pIC50 was 7.40.

In the case of `CCS(=O)(=O)c1cccc(-c2ccc(C(=O)c3cc(OC)c(OC)c(OC)c3)c(-n3cncn3)c2)c1` [Compound 479, (3′-ethanesulfonyl-3-[1,2,4]triazol-1-yl-biphenyl-4-yl)(3,4,5-trimethoxyphenyl)methanone], the pIC50 under setting [1] was 7.60.

`COc1cc(C(=O)c2ccc(-c3cncs3)cc2-n2cncn2)cc(OC)c1OC` [Compound 534, (4-(thiazol-5-yl)-2-(1H-1,2,4-triazol-1-yl)phenyl)(3,4,5-trimethoxyphenyl)methanone]: under setting [1], the pIC50 is 7.22.

For `COc1cc(C(=O)c2cc(-c3nccs3)ccc2O)cc(OC)c1OC` [Compound 601, (2-hydroxy-5-(thiazol-2-yl)phenyl)(3,4,5-trimethoxyphenyl)methanone], under setting [1], the pIC50 is 7.05.

Turning to `COc1cc(C(=O)c2cccc(-c3ccsc3)c2)cc(OC)c1OC` [Compound 568, (3-(thiophen-3-yl)phenyl)(3,4,5-trimethoxyphenyl)methanone], the pIC50 under setting [1] is 6.44.

For `COc1cc(C(=O)c2cccc(-c3ccc[nH]3)c2)cc(OC)c1OC` [Compound 591, (3-(1H-pyrrol-2-yl)phenyl)(3,4,5-trimethoxyphenyl)methanone], under setting [1], the pIC50 was 6.70.

On to `COc1cc(C(=O)c2cc(-c3nccs3)ccc2-n2cncn2)cc(OC)c1OC` [Compound 347, (5-(thiazol-2-yl)-2-(1H-1,2,4-triazol-1-yl)phenyl)(3,4,5-trimethoxyphenyl)methanone], for which the pIC50 under setting [1] was 7.52.

For `COc1cc(C(=O)c2cc(-c3ncco3)ccc2N)cc(OC)c1OC` [Compound 289, (2-amino-5-(oxazol-2-yl)phenyl)(3,4,5-trimethoxyphenyl)methanone], the pIC50 under setting [1] is 8.15.

With `COc1cc(C(=O)c2cc(-c3nccs3)ccc2NS(C)(=O)=O)cc(OC)c1OC` [Compound 308, N-(4-(thiazol-2-yl)-2-(3,4,5-trimethoxybenzoyl)phenyl)methanesulfonamide], under setting [1], the pIC50 was 6.72.
